Data: publication PMC6681697, “One-Step ^18F-Labeling and Preclinical Evaluation of Prostate-Specific Membrane Antigen Trifluoroborate Probes for Cancer Imaging” (Journal of Nuclear Medicine, 2019)
Values belong to the molecule of their own block, whether it stands above or below them.

Legend:
PSMA = biological target: T1, PSMA (Homo sapiens, UniProt Q04609); assay: In vitro competition binding assay on LNCaP cells with ^18F-DCFPyL as radioligand
T1 construct: because it expresses PSMA endogenously and is commonly used to evaluate PSMA-targeting radiotracers; endogenous in cells; host or cells: LNCaP cells
T1 sequence (Q04609 whole entry): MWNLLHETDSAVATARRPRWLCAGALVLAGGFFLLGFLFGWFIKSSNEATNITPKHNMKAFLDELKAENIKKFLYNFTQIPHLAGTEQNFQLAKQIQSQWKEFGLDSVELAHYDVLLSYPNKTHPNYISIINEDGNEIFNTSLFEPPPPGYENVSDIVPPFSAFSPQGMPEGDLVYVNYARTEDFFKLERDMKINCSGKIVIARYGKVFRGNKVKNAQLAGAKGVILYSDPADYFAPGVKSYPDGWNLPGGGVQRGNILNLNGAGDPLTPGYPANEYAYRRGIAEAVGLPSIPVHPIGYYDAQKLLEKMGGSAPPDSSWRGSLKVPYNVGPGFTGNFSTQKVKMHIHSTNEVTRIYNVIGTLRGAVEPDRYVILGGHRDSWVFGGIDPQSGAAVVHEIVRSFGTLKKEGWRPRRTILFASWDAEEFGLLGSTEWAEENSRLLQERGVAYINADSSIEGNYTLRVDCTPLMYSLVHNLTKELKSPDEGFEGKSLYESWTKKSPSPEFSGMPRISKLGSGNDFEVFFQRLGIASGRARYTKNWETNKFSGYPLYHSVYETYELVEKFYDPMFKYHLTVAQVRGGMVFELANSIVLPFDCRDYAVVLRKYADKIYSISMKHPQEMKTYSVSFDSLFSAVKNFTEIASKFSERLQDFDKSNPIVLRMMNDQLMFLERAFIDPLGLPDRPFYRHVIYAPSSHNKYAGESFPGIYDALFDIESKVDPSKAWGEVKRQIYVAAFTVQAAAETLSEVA
Experimental: LNCaP cells were plated onto a 24-well poly-D-lysine coated plate for 48 h (400,000/well). […] Nonspecific binding was determined in the presence of 10 μM unlabeled DCFPyL. The assay mixtures were incubated for 1 h at 37°C with gentle agitation followed by 2 washes with cold HEPES buffered saline. A trypsin solution (0.25%, 400 μL) was then added to each well to harvest the cells. Radioactivity was measured by γ-counting, and Ki values were calculated using the “1 site—fit Ki” built-in model in Prism 7 (GraphPad).

[1] = Distribution coefficient (LogD7.4), shake flask method; format: physicochemical; conditions: n-octanol / phosphate buffer 0.1 M pH 7.4; n = 3
Experimental: LogD7.4 values were measured using the shake flask method. Briefly, an aliquot of ^18F-labeled tracer was added to a vial containing 2.5 mL of n-octanol and 2.5 mL of phosphate buffer (0.1 M, pH 7.4). The mixture was vortexed for 2 min and then centrifuged at 3,000g for 10 min. A sample of the n-octanol (0.1 mL) and buffer (0.1 mL) layers was counted using a γ-counter. Values of LogD7.4 were calculated using the following equation: LogD7.4 = log10 [(counts in n-octanol phase)/(counts in buffer phase)].

LNCaP xenografts = assay: Ex vivo biodistribution and blocking studies in mice bearing LNCaP xenografts; conditions: for tumor uptake compared with ^18F-DCFPyL: 1-way ANOVA, Dunnett test; for tumor uptake: LNCaP tumor
Experimental: Imaging and biodistribution experiments were performed using NODSCID IL2RγKO male mice. All experiments were conducted according to the guidelines established by the Canadian Council on Animal Care and approved by the Animal Ethics Committee of the University of British Columbia. Mice were anesthetized by inhalation with 2% isoflurane in oxygen and implanted subcutaneously with 1 × 10^7 LNCaP cells behind the left shoulder. The mice were imaged or used in biodistribution studies once the tumor reached 5–8 mm in diameter (5–6 wk).
For biodistribution and blocking studies, the mice were injected with 1–3 MBq of radiotracer. At 60 min, the mice were anesthetized with 2% isoflurane inhalation and euthanized by CO2 inhalation. Blood was withdrawn by cardiac puncture, and the organs and tissues of interest were collected, weighed, and counted using an automatic γ-counter (PerkinElmer). Uptake values were expressed as the percentage of the injected dose per gram of tissue (%ID/g).
A standard 1-way ANOVA was performed to determine whether statistically significant differences in tumor uptake occurred between radiotracers. Each radiotracer was compared with ^18F-DCFPyL using the Dunnett test (a many-to-one t test comparison). This analysis was also performed for kidney and blood activity and for tumor-to-blood and tumor-to-muscle ratios. Reported P values were adjusted for multiple comparisons. The analysis was performed using Prism 8 (GraphPad). […]
Statistical analyses were performed using GradPad prism 7. Multiple t tests were performed to compare biodistribution in unblocked and blocked mice, multiple comparisons were corrected using the Holm-Sidak method. The difference was considered statistically significant when p value was < 0.05.
Supplemental Table 1 – Complete biodistribution study for compounds [18F]1–3 […]
Tissue 1h 1h blocked 1h 1h blocked 1h 1h blocked
(%ID/g) n = 8 n = 4 n = 6 n = 4 n = 8 n = 5 […]
(1 picture or pasted object on this page, not shown here)

[2] = 1 h blocked (coinjection of DCFPyL 0.5 mg)

- Ki (PSMA): 1.14 ± 0.26 nM
- logD at 2 min [1]: -3.52 ± 0.21
- T/B (tumor-to-blood ratio) (LNCaP xenografts; 1 h after injection, unblocked): 17.12 ± 5.40
- T/K (tumor-to-kidney ratio) (LNCaP xenografts; 1 h after injection, unblocked): 0.21 ± 0.08
- T/M (tumor-to-muscle ratio) (LNCaP xenografts; 1 h after injection, unblocked): 49.67 ± 28.45
- adrenal uptake (LNCaP xenografts; 1 h after injection, unblocked): 2.89 ± 1.94 %ID/g
- blood uptake (LNCaP xenografts; 1 h after injection, unblocked): 0.89 ± 0.42 %ID/g
- bone uptake (LNCaP xenografts; 1 h after injection, unblocked): 0.34 ± 0.14 %ID/g
- brain uptake (LNCaP xenografts; 1 h after injection, unblocked): 0.04 ± 0.01 %ID/g
- fat uptake (LNCaP xenografts; 1 h after injection, unblocked): 0.83 ± 0.33 %ID/g
- heart uptake (LNCaP xenografts; 1 h after injection, unblocked): 0.31 ± 0.11 %ID/g
- intestine uptake (LNCaP xenografts; 1 h after injection, unblocked): 12.96 ± 4.61 %ID/g
- kidney uptake (LNCaP xenografts; 1 h after injection, unblocked): 73.86 ± 35.21 %ID/g
- liver uptake (LNCaP xenografts; 1 h after injection, unblocked): 1.14 ± 0.48 %ID/g
- lung uptake (LNCaP xenografts; 1 h after injection, unblocked): 1.21 ± 0.48 %ID/g
- muscle uptake (LNCaP xenografts; 1 h after injection, unblocked): 0.36 ± 0.18 %ID/g
- pancreas uptake (LNCaP xenografts; 1 h after injection, unblocked): 0.30 ± 0.17 %ID/g
- spleen uptake (LNCaP xenografts; 1 h after injection, unblocked): 3.21 ± 1.73 %ID/g
- stomach uptake (LNCaP xenografts; 1 h after injection, unblocked): 0.37 ± 0.45 %ID/g
- testes uptake (LNCaP xenografts; 1 h after injection, unblocked): 0.74 ± 0.55 %ID/g
- tumor uptake compared with ^18F-DCFPyL (LNCaP xenografts; 1 h after injection): No statistically significant differences
- T/B (tumor-to-blood ratio) (LNCaP xenografts; [2]): 0.95 ± 0.10
- T/K (tumor-to-kidney ratio) (LNCaP xenografts; [2]): 0.41 ± 0.09
- T/M (tumor-to-muscle ratio) (LNCaP xenografts; [2]): 2.85 ± 0.70
- adrenal uptake (LNCaP xenografts; [2]): 0.34 ± 0.09 %ID/g
- blood uptake (LNCaP xenografts; [2]): 0.44 ± 0.02 %ID/g
- bone uptake (LNCaP xenografts; [2]): 0.17 ± 0.03 %ID/g
- brain uptake (LNCaP xenografts; [2]): 0.02 ± 0.00 %ID/g
- fat uptake (LNCaP xenografts; [2]): 0.16 ± 0.06 %ID/g
- heart uptake (LNCaP xenografts; [2]): 0.15 ± 0.00 %ID/g
- intestine uptake (LNCaP xenografts; [2]): 12.36 ± 0.55 %ID/g
- kidney uptake (LNCaP xenografts; [2]): 1.04 ± 0.14 %ID/g
- liver uptake (LNCaP xenografts; [2]): 0.67 ± 0.13 %ID/g
- lung uptake (LNCaP xenografts; [2]): 0.39 ± 0.01 %ID/g
- muscle uptake (LNCaP xenografts; [2]): 0.15 ± 0.02 %ID/g
- pancreas uptake (LNCaP xenografts; [2]): 0.13 ± 0.06 %ID/g
- spleen uptake (LNCaP xenografts; [2]): 0.21 ± 0.02 %ID/g
- stomach uptake (LNCaP xenografts; [2]): 0.12 ± 0.10 %ID/g
- testes uptake (LNCaP xenografts; [2]): 0.24 ± 0.05 %ID/g
- tumor uptake (LNCaP xenografts; 1 h after injection, unblocked): 13.96 ± 5.20 %ID/g
- tumor uptake (LNCaP xenografts; [2]): 0.41 ± 0.04 %ID/g
SMILES: C[N+](C)(Cc1cn(CC(=O)NC[C@H]2CC[C@H](C(=O)N[C@@H](Cc3ccc4ccccc4c3)C(=O)NCCCC[C@H](NC(=O)N[C@@H](CCC(=O)O)C(=O)O)C(=O)O)CC2)nn1)C[B-](F)(F)F [^18F-5]
- intestinal activity compared with ^18F-DCFPyL (LNCaP xenografts; 1 h after injection): significantly higher intestinal activity than ^18F-DCFPyL

- Ki (PSMA): 1.9 ± 0.68 nM
- LogD7.4 [1]: most lipophilic compound of the series
- logD at 2 min [1]: -2.28 ± 0.01
- T/B (tumor-to-blood ratio) (LNCaP xenografts; 1 h after injection, unblocked): 19.80 ± 7.23
- T/K (tumor-to-kidney ratio) (LNCaP xenografts; 1 h after injection, unblocked): 0.14 ± 0.02
- T/M (tumor-to-muscle ratio) (LNCaP xenografts; 1 h after injection, unblocked): 72.20 ± 13.46
- adrenal uptake (LNCaP xenografts; 1 h after injection, unblocked): 2.14 ± 0.61 %ID/g
- blood uptake (LNCaP xenografts; 1 h after injection, unblocked): 0.68 ± 0.26 %ID/g
- bone uptake (LNCaP xenografts; 1 h after injection, unblocked): 0.56 ± 0.14 %ID/g
- brain uptake (LNCaP xenografts; 1 h after injection, unblocked): 0.03 ± 0.01 %ID/g
- fat uptake (LNCaP xenografts; 1 h after injection, unblocked): 0.38 ± 0.14 %ID/g
- heart uptake (LNCaP xenografts; 1 h after injection, unblocked): 0.22 ± 0.03 %ID/g
- intestine uptake (LNCaP xenografts; 1 h after injection, unblocked): 23.05 ± 4.39 %ID/g
- kidney uptake (LNCaP xenografts; 1 h after injection, unblocked): 83.22 ± 6.07 %ID/g
- liver uptake (LNCaP xenografts; 1 h after injection, unblocked): 0.98 ± 0.22 %ID/g
- lung uptake (LNCaP xenografts; 1 h after injection, unblocked): 1.05 ± 0.14 %ID/g
- muscle uptake (LNCaP xenografts; 1 h after injection, unblocked): 0.17 ± 0.02 %ID/g
- pancreas uptake (LNCaP xenografts; 1 h after injection, unblocked): 0.26 ± 0.06 %ID/g
- spleen uptake (LNCaP xenografts; 1 h after injection, unblocked): 1.77 ± 0.70 %ID/g
- stomach uptake (LNCaP xenografts; 1 h after injection, unblocked): 1.17 ± 1.35 %ID/g
- testes uptake (LNCaP xenografts; 1 h after injection, unblocked): 0.33 ± 0.05 %ID/g
- tumor uptake compared with ^18F-DCFPyL (LNCaP xenografts; 1 h after injection): No statistically significant differences
- T/B (tumor-to-blood ratio) (LNCaP xenografts; [2]): 0.72 ± 0.43
- T/K (tumor-to-kidney ratio) (LNCaP xenografts; [2]): 0.29 ± 0.07
- T/M (tumor-to-muscle ratio) (LNCaP xenografts; [2]): 3.78 ± 0.17
- adrenal uptake (LNCaP xenografts; [2]): 0.20 ± 0.04 %ID/g
- blood uptake (LNCaP xenografts; [2]): 1.64 ± 2.58 %ID/g
- bone uptake (LNCaP xenografts; [2]): 0.57 ± 0.37 %ID/g
- brain uptake (LNCaP xenografts; [2]): 0.03 ± 0.03 %ID/g
- fat uptake (LNCaP xenografts; [2]): 0.06 ± 0.02 %ID/g
- heart uptake (LNCaP xenografts; [2]): 0.17 ± 0.07 %ID/g
- intestine uptake (LNCaP xenografts; [2]): 24.50 ± 4.86 %ID/g
- kidney uptake (LNCaP xenografts; [2]): 1.30 ± 0.25 %ID/g
- liver uptake (LNCaP xenografts; [2]): 0.87 ± 0.17 %ID/g
- lung uptake (LNCaP xenografts; [2]): 0.43 ± 0.23 %ID/g
- muscle uptake (LNCaP xenografts; [2]): 0.10 ± 0.02 %ID/g
- pancreas uptake (LNCaP xenografts; [2]): 0.16 ± 0.14 %ID/g
- spleen uptake (LNCaP xenografts; [2]): 0.18 ± 0.10 %ID/g
- stomach uptake (LNCaP xenografts; [2]): 0.88 ± 0.41 %ID/g
- testes uptake (LNCaP xenografts; [2]): 0.14 ± 0.04 %ID/g
- tumor uptake (LNCaP xenografts; 1 h after injection, unblocked, listed as 6): 11.9 ± 2.3 %ID/g
- tumor uptake (LNCaP xenografts; 1 h after injection, unblocked, listed as [18F]6): 11.94 ± 2.29 %ID/g
- tumor uptake (LNCaP xenografts; [2]): 0.37 ± 0.10 %ID/g
SMILES: O=C(O)CC[C@H](NC(=O)N[C@@H](CCCCNC(=O)[C@H](Cc1ccc2ccccc2c1)NC(=O)[C@H]1CC[C@H](CNC(=O)Cn2cc(C[n+]3ccc([B-](F)(F)F)cc3)nn2)CC1)C(=O)O)C(=O)O [^18F-6]
- intestinal activity compared with ^18F-DCFPyL (LNCaP xenografts; 1 h after injection): significantly higher intestinal activity than ^18F-DCFPyL
